Organism: Rattus norvegicus
Assay: Open TG-GATES - Regimen: Single
Assay type: toxicity, organism-based, Sprague-Dawley
Design: regimen Single, gender Male, age 6 weeks
Settings: in vivo, po, route gavage; for Bas / Eos / Fbg / Hb / Lym / MCH / MCHC / MCV / Mono / Neu / RBC / Ret / WBC / APTT: tissue Blood; for KIDNEY_L / KIDNEY_R / KIDNEY_TOTAL: tissue Kidney; for LIVER: tissue Liver; for ALP / ALT / AST / CRE / Ca / Cl / DBIL / GLC / IP / K / LDH / Na / PL / RALB / TBIL / TC / TG / TP / gamma-GTP: tissue Plasma
[1] = 75 mg/kg, 3 h, dose level Middle

`O=C1CN(/N=C/c2ccc(-c3ccc([N+](=O)[O-])cc3)o2)C(O)=N1` [DANTROLENE] showed a Bas (25 mg/kg, 3 h, dose level Low) of 0%, an Eos (25 mg/kg, 3 h, dose level Low) of 1% and a Fbg (25 mg/kg, 3 h, dose level Low) of 205.2 mg/dL. It also gave a Hb (25 mg/kg, 3 h, dose level Low) of 13.6 g/dL, a Lym (25 mg/kg, 3 h, dose level Low) of 74.4% and an MCH (25 mg/kg, 3 h, dose level Low) of 22.5 pg. The MCHC (25 mg/kg, 3 h, dose level Low) was 34.1%, the MCV (25 mg/kg, 3 h, dose level Low) was 65.9 fL and the Mono (25 mg/kg, 3 h, dose level Low) was 8.4%. For the same compound, the Neu (25 mg/kg, 3 h, dose level Low) was 16.2%, the RBC (25 mg/kg, 3 h, dose level Low) was 604.8 x10_4/ul and the Ret (25 mg/kg, 3 h, dose level Low) was 10.4%. It also gave a WBC (25 mg/kg, 3 h, dose level Low) of 99.1 x10_2/uL, a KIDNEY_L (25 mg/kg, 3 h, dose level Low) of 1 g and a KIDNEY_R (25 mg/kg, 3 h, dose level Low) of 1 g. It also gave a KIDNEY_TOTAL (25 mg/kg, 3 h, dose level Low) of 1.9 g, an LIVER (25 mg/kg, 3 h, dose level Low) of 9.5 g and an ALP (25 mg/kg, 3 h, dose level Low) of 1009.8 IU/L. The ALT (25 mg/kg, 3 h, dose level Low) was 38.4 IU/L, the AST (25 mg/kg, 3 h, dose level Low) was 69.2 IU/L and the CRE (25 mg/kg, 3 h, dose level Low) was 0.6 mg/dL. It also gave a Ca (25 mg/kg, 3 h, dose level Low) of 10.5 mg/dL, a Cl (25 mg/kg, 3 h, dose level Low) of 101.8 meq/L and a DBIL (25 mg/kg, 3 h, dose level Low) of 0.03 mg/dL. It also gave a GLC (25 mg/kg, 3 h, dose level Low) of 213 mg/dL, an IP (25 mg/kg, 3 h, dose level Low) of 10.8 mg/dL and a K (25 mg/kg, 3 h, dose level Low) of 4.8 meq/L. The LDH (25 mg/kg, 3 h, dose level Low) was 97.8 IU/L, the Na (25 mg/kg, 3 h, dose level Low) was 139.2 meq/L and the PL (25 mg/kg, 3 h, dose level Low) was 141.6 mg/dL. It also gave an RALB (25 mg/kg, 3 h, dose level Low) of 3.8 g/dL, a TBIL (25 mg/kg, 3 h, dose level Low) of 0.4 mg/dL and a TC (25 mg/kg, 3 h, dose level Low) of 83.4 mg/dL. It also gave a TG (25 mg/kg, 3 h, dose level Low) of 39.4 mg/dL, a TP (25 mg/kg, 3 h, dose level Low) of 5.6 g/dL and a gamma-GTP (25 mg/kg, 3 h, dose level Low) of 2.6 IU/L. It also gave a TERMINAL_BW (25 mg/kg, 6 h, dose level Low) of 191.8 g, an APTT (25 mg/kg, 6 h, dose level Low) of 16.9 s and a Bas (25 mg/kg, 6 h, dose level Low) of 0%. For the same compound, the Eos (25 mg/kg, 6 h, dose level Low) was 1.2%, the Fbg (25 mg/kg, 6 h, dose level Low) was 210.4 mg/dL and the Hb (25 mg/kg, 6 h, dose level Low) was 13.8 g/dL. For the same compound, the Lym (25 mg/kg, 6 h, dose level Low) was 77%, the MCH (25 mg/kg, 6 h, dose level Low) was 21.9 pg and the MCHC (25 mg/kg, 6 h, dose level Low) was 34.3%. The MCV (25 mg/kg, 6 h, dose level Low) was 64.1 fL, the Mono (25 mg/kg, 6 h, dose level Low) was 8% and the Neu (25 mg/kg, 6 h, dose level Low) was 14%. It also gave an RBC (25 mg/kg, 6 h, dose level Low) of 632.4 x10_4/ul, a Ret (25 mg/kg, 6 h, dose level Low) of 12.6% and a WBC (25 mg/kg, 6 h, dose level Low) of 89.5 x10_2/uL. For the same compound, the KIDNEY_L (25 mg/kg, 6 h, dose level Low) was 0.9 g, the KIDNEY_R (25 mg/kg, 6 h, dose level Low) was 0.9 g and the KIDNEY_TOTAL (25 mg/kg, 6 h, dose level Low) was 1.8 g. It also gave an LIVER (25 mg/kg, 6 h, dose level Low) of 8.7 g, an ALP (25 mg/kg, 6 h, dose level Low) of 698.6 IU/L and an ALT (25 mg/kg, 6 h, dose level Low) of 30.4 IU/L. It also gave an AST (25 mg/kg, 6 h, dose level Low) of 60.4 IU/L, a CRE (25 mg/kg, 6 h, dose level Low) of 0.5 mg/dL and a Ca (25 mg/kg, 6 h, dose level Low) of 10.3 mg/dL. It also gave a Cl (25 mg/kg, 6 h, dose level Low) of 103 meq/L, a DBIL (25 mg/kg, 6 h, dose level Low) of 0.07 mg/dL and a GLC (25 mg/kg, 6 h, dose level Low) of 188.2 mg/dL. For the same compound, the IP (25 mg/kg, 6 h, dose level Low) was 9.7 mg/dL, the K (25 mg/kg, 6 h, dose level Low) was 4.7 meq/L and the LDH (25 mg/kg, 6 h, dose level Low) was 100.8 IU/L. The Na (25 mg/kg, 6 h, dose level Low) was 139.2 meq/L, the PL (25 mg/kg, 6 h, dose level Low) was 141.6 mg/dL and the RALB (25 mg/kg, 6 h, dose level Low) was 3.7 g/dL. The TBIL (25 mg/kg, 6 h, dose level Low) was 0.4 mg/dL, the TC (25 mg/kg, 6 h, dose level Low) was 78.8 mg/dL and the TG (25 mg/kg, 6 h, dose level Low) was 44 mg/dL. For the same compound, the TP (25 mg/kg, 6 h, dose level Low) was 5.3 g/dL, the gamma-GTP (25 mg/kg, 6 h, dose level Low) was 2 IU/L and the TERMINAL_BW (25 mg/kg, 9 h, dose level Low) was 189.9 g. For the same compound, the APTT (25 mg/kg, 9 h, dose level Low) was 16.4 s, the Bas (25 mg/kg, 9 h, dose level Low) was 0% and the Eos (25 mg/kg, 9 h, dose level Low) was 0.6%. The Fbg (25 mg/kg, 9 h, dose level Low) was 209.8 mg/dL, the Hb (25 mg/kg, 9 h, dose level Low) was 13.9 g/dL and the Lym (25 mg/kg, 9 h, dose level Low) was 80.6%. It also gave an MCH (25 mg/kg, 9 h, dose level Low) of 21.6 pg, an MCHC (25 mg/kg, 9 h, dose level Low) of 33.1% and an MCV (25 mg/kg, 9 h, dose level Low) of 65.4 fL. The Mono (25 mg/kg, 9 h, dose level Low) was 5%, the Neu (25 mg/kg, 9 h, dose level Low) was 14% and the RBC (25 mg/kg, 9 h, dose level Low) was 644 x10_4/ul. The Ret (25 mg/kg, 9 h, dose level Low) was 10.9%, the WBC (25 mg/kg, 9 h, dose level Low) was 83 x10_2/uL and the KIDNEY_L (25 mg/kg, 9 h, dose level Low) was 0.9 g. For the same compound, the KIDNEY_R (25 mg/kg, 9 h, dose level Low) was 0.9 g, the KIDNEY_TOTAL (25 mg/kg, 9 h, dose level Low) was 1.8 g and the LIVER (25 mg/kg, 9 h, dose level Low) was 8.2 g. The ALP (25 mg/kg, 9 h, dose level Low) was 723.6 IU/L, the ALT (25 mg/kg, 9 h, dose level Low) was 22.2 IU/L and the AST (25 mg/kg, 9 h, dose level Low) was 49.4 IU/L. It also gave a CRE (25 mg/kg, 9 h, dose level Low) of 0.6 mg/dL, a Ca (25 mg/kg, 9 h, dose level Low) of 10.4 mg/dL and a Cl (25 mg/kg, 9 h, dose level Low) of 104.4 meq/L. It also gave a DBIL (25 mg/kg, 9 h, dose level Low) of 0.062 mg/dL, a GLC (25 mg/kg, 9 h, dose level Low) of 199.4 mg/dL and an IP (25 mg/kg, 9 h, dose level Low) of 10.1 mg/dL. For the same compound, the K (25 mg/kg, 9 h, dose level Low) was 5.1 meq/L, the LDH (25 mg/kg, 9 h, dose level Low) was 75.2 IU/L and the Na (25 mg/kg, 9 h, dose level Low) was 139 meq/L. For the same compound, the PL (25 mg/kg, 9 h, dose level Low) was 137.2 mg/dL, the RALB (25 mg/kg, 9 h, dose level Low) was 3.7 g/dL and the TBIL (25 mg/kg, 9 h, dose level Low) was 0.4 mg/dL. For the same compound, the TC (25 mg/kg, 9 h, dose level Low) was 69.8 mg/dL, the TG (25 mg/kg, 9 h, dose level Low) was 42.8 mg/dL and the TP (25 mg/kg, 9 h, dose level Low) was 5.5 g/dL. The gamma-GTP (25 mg/kg, 9 h, dose level Low) was 2 IU/L, the TERMINAL_BW (25 mg/kg, 24 h, dose level Low) was 208.5 g and the APTT (25 mg/kg, 24 h, dose level Low) was 16.6 s. The Bas (25 mg/kg, 24 h, dose level Low) was 0%, the Eos (25 mg/kg, 24 h, dose level Low) was 1% and the Fbg (25 mg/kg, 24 h, dose level Low) was 200.4 mg/dL. For the same compound, the Hb (25 mg/kg, 24 h, dose level Low) was 13.1 g/dL, the Lym (25 mg/kg, 24 h, dose level Low) was 81.2% and the MCH (25 mg/kg, 24 h, dose level Low) was 21.9 pg. It also gave an MCHC (25 mg/kg, 24 h, dose level Low) of 33.5%, an MCV (25 mg/kg, 24 h, dose level Low) of 65.4 fL and a Mono (25 mg/kg, 24 h, dose level Low) of 6.8%. The RBC (25 mg/kg, 24 h, dose level Low) was 600.4 x10_4/ul, the Ret (25 mg/kg, 24 h, dose level Low) was 11.4% and the WBC (25 mg/kg, 24 h, dose level Low) was 97.3 x10_2/uL. It also gave a KIDNEY_L (25 mg/kg, 24 h, dose level Low) of 1 g, a KIDNEY_R (25 mg/kg, 24 h, dose level Low) of 1 g and a KIDNEY_TOTAL (25 mg/kg, 24 h, dose level Low) of 2 g. For the same compound, the LIVER (25 mg/kg, 24 h, dose level Low) was 10.4 g, the ALP (25 mg/kg, 24 h, dose level Low) was 1049.2 IU/L and the ALT (25 mg/kg, 24 h, dose level Low) was 35.8 IU/L. For the same compound, the AST (25 mg/kg, 24 h, dose level Low) was 71.2 IU/L, the CRE (25 mg/kg, 24 h, dose level Low) was 0.5 mg/dL and the Ca (25 mg/kg, 24 h, dose level Low) was 11.1 mg/dL. For the same compound, the Cl (25 mg/kg, 24 h, dose level Low) was 105.4 meq/L, the DBIL (25 mg/kg, 24 h, dose level Low) was 0.012 mg/dL and the GLC (25 mg/kg, 24 h, dose level Low) was 198.2 mg/dL. The IP (25 mg/kg, 24 h, dose level Low) was 6.5 mg/dL, the K (25 mg/kg, 24 h, dose level Low) was 4.7 meq/L and the Na (25 mg/kg, 24 h, dose level Low) was 142 meq/L. It also gave a PL (25 mg/kg, 24 h, dose level Low) of 142.4 mg/dL, an RALB (25 mg/kg, 24 h, dose level Low) of 3.9 g/dL and a TBIL (25 mg/kg, 24 h, dose level Low) of 0.3 mg/dL. The TC (25 mg/kg, 24 h, dose level Low) was 77.8 mg/dL, the TG (25 mg/kg, 24 h, dose level Low) was 73.2 mg/dL and the TP (25 mg/kg, 24 h, dose level Low) was 5.6 g/dL. For the same compound, the gamma-GTP (25 mg/kg, 24 h, dose level Low) was 1.6 IU/L, the TERMINAL_BW [1] was 194 g and the APTT [1] was 16.9 s.
